# “Also recorded” adds a separate entry of the source. Like-named read-outs stand apart in the source and are kept apart here.
# Columns and labels:
# delF508-CFTR [1] = target: T1, delF508-CFTR (Homo sapiens, UniProt P13569, DEL508-508); experiment: Iodide efflux test of delF508 addressing in CF15 cells
# Experimental: These cells will therefore overexpress the CFTR protein. • Culture medium: MEM alpha medium (GIBCO)+7% foetal calf serum+0.5% penicilline/streptomycin+100 μM methotrexate (amethopterine, Sigma). • CF15 cells: CF15 cells are human nasal epithelial cells expressing the ΔF508-CFTR gene. • Culture medium: DMEM+HAM F12 medium+10% FCS+0.6% penicilline/streptomycin+growth factors (5 μg/ml insulin, 5 μg/ml transferrin, 5.5 μM epinephrin, 0.18 mM adenine, 10 ng/ml EGF, 2 nM T3, 1.1 μM hydrocortisone). • Calu-3 cells: Calu-3 cells are human lung epithelial cells expressing the wild-type CFTR gene. • Culture medium: DMEM/F12 medium with glutamax+7% foetal calf serum+1% penicillin/streptomycin.
# Measurements of chloride ion transport in the cells were performed using the radioactive iodide efflux technique (Becq and al., 1999; Dormer and al., 2001). The ^125I tracer is incorporated into the intracellular milieu. The quantity of radiotracer coming out of the cell is then measured after adding various pharmacological agents. Iodide is used as a tracer of chloride ion transport. ^125I has the advantage of being short-lived compared to other markers such as ^35CI (respective half-lives: 30 days and 300,000 years).
# The cells are incubated in an appropriate medium in 24-well plates. The cells are rinsed twice with efflux medium (136.6 mM NaCl, 5.4 mM KCl, 0.3 mM KH2PO4, 0.3 mM NaH2PO4, 4.2 mM NaHCO3, 1.3 mM CaCl2, 0.5 mM MgCl2, 0.4 mM MgSO4, 10 mM HEPES, 5.6 mM D-glucose) in order to eliminate dead cells, which release radioactivity in an anarchic fashion. The cells are then incubated with a 500-μl load (1 μCi/ml ^125INa) for 30 min for CHO-WT or 1 hr for CF15 and Calu-3 cells. The iodide equilibrates on either side of the cell membrane. The following steps are performed using a MultiPROBE probe (Packard): the loading medium is rinsed with efflux medium in order to eliminate extracellular radioactivity. The supernatant is collected every minute into haemolysis tubes and the medium is replaced by an equivalent volume of medium (500 μl). No drug is added to the samples taken in the first three minutes in order to obtain a stable baseline characterising the passive exit of I ions. The 7 samples that follow are obtained in the presence of the molecule to be tested. At the end of the experiment, the cells are lysed by adding 500 μl of 0.1 N NaOH/0.1% SDS (30 min), which allows determining the level of radioactivity remaining inside the cell. The radioactivity present in the haemolysis tubes is measured as counts per minute (cpm) using a Cobra II gamma counter (Packard). The results (cpm) are expressed as velocity of radioactive iodide efflux (R) according to the formula: R (min^−1)=[In(^125I t1)−In(^125I t2)]/(t1−t2) where ^125I t1=at time t1 and ^125I t2=at time t2. This iodide flux is represented by a graph. In order to quantify the iodide efflux due to administration of the tested molecule, the relative flux is calculated as follows in order to ignore the basal flux: Relative velocity (min^−1)=Rpeak−Rbasal. […] The results are presented in the form of a mean +/−SEM. Student's statistical test is used to compare the effect of the various drugs with the controls (the corresponding P<0.01 values are considered to be statistically significant).
# For each experiment, the addition of a cocktail (10 μM Forskoline+30 μM Genisteine) allows activation of the CFTR when the latter is localised in the membrane. This allows an iodide efflux to be observed if delF508 addressing has been restored.
# wild-type CFTR [2] = target: T2, wild-type CFTR (Homo sapiens, UniProt P13569); experiment: Iodide efflux test of CFTR activation in Calu-3 cells; type: cell-based; settings: n=8, controls forskoline 5 μM and MPB-91 250 μM
# Experimental: The controls used were forskoline (5 μM, n=8) and MPB-91 (250 μM, n=8).
# wild-type CFTR [3] = target: T2, wild-type CFTR; experiment: Iodide efflux test of CFTR addressing in Calu-3 cells; type: cell-based; settings: Calu-3 cells treated 2 hrs, 100 μM
# CHO-WT cells = experiment: MTT cytotoxicity test; type: cell-based, Chinese Hamster; settings: 2 hrs incubation, different concentrations
# Experimental: The MTT cytotoxicity test is a […] test based on the capacity of mitochondrial dehydrogenases to metabolise MTT (a yellow tetrazolium salt) into formazan (purple). The absorbance is proportional to the concentration of converted dye and can then be measured by spectrophotometry. The cells are incubated in 96-well microplates in the presence of the agent to be tested for 2 hours. Three controls are performed: 100% live cells (cells without any agent); 0% live cells (cells left under normal atmosphere); blank (medium without cells). The cells are rinsed with RPMI medium without phenol red in order for the colour of the medium not to interfere with absorbance measurements. The cells are then incubated for 4 hours with 100 μl RPMI solution supplemented with MTT (0.5 mg/ml). The medium is eliminated and 100 μl DMSO is added to dissolve the converted dye (formazan). The absorbance is measured by spectrophotometry at 570 nm (purple); 630 nm (background noise). In order to ignore the background noise, the following calculation is performed: DOreelle=DO570nm−DO630nm.
# In order to test the cytotoxicity of roscovitine, CHO-WT cells were incubated for 2 hrs with different concentrations of inhibitors before being tested for viability with MTT.
# delF508-CFTR [4] = target: T1, delF508-CFTR; experiment: Immunoprecipitation and Western-Blot of delF508-CFTR in CF15 cells; type: cell-based; parameters: CF15 human lung epithelial cells homozygous for the delF508 deletion; endogenous in cells; host or cells: CF15 human epithelial cells, homozygous delF508; settings: 2 hrs, 100 μM
# Experimental: The study of delF508-CFTR protein addressing is performed in the laboratory by using a combination of pharmacological, cellular imagery, biochemical and electrophysiological tests on CF15 human lung epithelial cells homozygous for the delF508 deletion. Results of immunoprecipitation and Western-Blot analyses of non mutated CFTR from wild-type CHO cells and delF508 cells treated for 2 hrs with 100 μM of the tested compound (FIG. 3C) or untreated cells (control). CF15 cells treated for 24 hrs at 27° C. (FIG. 3B) or for 2 hrs with 10 μM thapsigargin (TG) were used as a positive control.
# delF508-CFTR [5] = target: T1, delF508-CFTR; experiment: Immunolocalisation of delF508-CFTR in CF15 cells (confocal); type: cell-based; parameters: CF15 human lung epithelial cells homozygous for the delF508 deletion; endogenous in cells; host or cells: CF15 human epithelial cells, homozygous delF508; settings: 2 hrs treatment, 100 μM
# Experimental: Immunolabelling allows visualising the cellular localisation of the CFTR protein by means of an anti-CFTR primary antibody (Ab), and a secondary Cy3-labelled fluorescent antibody directed against the primary antibody. The cells are first seeded on cover slips in an appropriate culture medium. The cells are then washed 3 times with TBS (157 mM NaCl, […] Tris base, pH 7.4) for 5 min. each time and then fixed by adding 3% TBS-paraformaldehyde for 20 min. After 3 washes with TBS (5 min. each), the cells are incubated with 0.1% TBS-triton (10 min) to make holes in the cell membrane, and then washed 3 times with TBS before being exposed to 0.5% TBS-BSA-0.05% saponin for 1 hr. The cells are then incubated with the primary anti-CFTR C terminal antibody (2 μg/ml) for 1 hr. The cells are washed 3 times (5 min. each) with TBS-BSA-saponin before incubating with the GAM-cy3 secondary antibody (1/400) for 1 hr. After 2 TBS washes (5 min. each), the nuclei are labelled by incubating with Topro3 (1/1,000) for 5 min. Finally, the cover slips can be mounted on a glass slide after 3 final TBS washes (5 min. each). The slides are analysed with a confocal microscope (Bio-Rad) using laser excitation at appropriate wave-lengths. In order to differentiate Cy3 from Topro3 labelling, the colour of the Topor3 fluorescence has been changed to blue (colour of the nuclei). […]
# delF508-CFTR [6] = target: T1, delF508-CFTR; experiment: Competition between roscovitine and ER chaperone machinery (iodide efflux); type: cell-based; parameters: CF15 human lung epithelial cells homozygous for the delF508 deletion; endogenous in cells; host or cells: CF15 human epithelial cells, homozygous delF508
# From the text: The competition between CFTR-T1 and the ER chaperone machinery is illustrated by FIGS. 6A and 6B.
# The table below summarises the roscovitine and ER chaperone machinery competition experiments performed by the iodide efflux technique. • inhibition, ** P<0.01, * P<0.1, ns P>0.1 (Student's t-test)
# [7] = read-out: Ec50 (concentration giving 50% of maximal efficiency) for delF508 addressing, CF15 cells, 2 hrs at 37° C., stimulation with 10 μM Forskoline+30 μM Genisteine, n=4
# T1 sequence (P13569 with tags, fused parts or gaps DEL508-508): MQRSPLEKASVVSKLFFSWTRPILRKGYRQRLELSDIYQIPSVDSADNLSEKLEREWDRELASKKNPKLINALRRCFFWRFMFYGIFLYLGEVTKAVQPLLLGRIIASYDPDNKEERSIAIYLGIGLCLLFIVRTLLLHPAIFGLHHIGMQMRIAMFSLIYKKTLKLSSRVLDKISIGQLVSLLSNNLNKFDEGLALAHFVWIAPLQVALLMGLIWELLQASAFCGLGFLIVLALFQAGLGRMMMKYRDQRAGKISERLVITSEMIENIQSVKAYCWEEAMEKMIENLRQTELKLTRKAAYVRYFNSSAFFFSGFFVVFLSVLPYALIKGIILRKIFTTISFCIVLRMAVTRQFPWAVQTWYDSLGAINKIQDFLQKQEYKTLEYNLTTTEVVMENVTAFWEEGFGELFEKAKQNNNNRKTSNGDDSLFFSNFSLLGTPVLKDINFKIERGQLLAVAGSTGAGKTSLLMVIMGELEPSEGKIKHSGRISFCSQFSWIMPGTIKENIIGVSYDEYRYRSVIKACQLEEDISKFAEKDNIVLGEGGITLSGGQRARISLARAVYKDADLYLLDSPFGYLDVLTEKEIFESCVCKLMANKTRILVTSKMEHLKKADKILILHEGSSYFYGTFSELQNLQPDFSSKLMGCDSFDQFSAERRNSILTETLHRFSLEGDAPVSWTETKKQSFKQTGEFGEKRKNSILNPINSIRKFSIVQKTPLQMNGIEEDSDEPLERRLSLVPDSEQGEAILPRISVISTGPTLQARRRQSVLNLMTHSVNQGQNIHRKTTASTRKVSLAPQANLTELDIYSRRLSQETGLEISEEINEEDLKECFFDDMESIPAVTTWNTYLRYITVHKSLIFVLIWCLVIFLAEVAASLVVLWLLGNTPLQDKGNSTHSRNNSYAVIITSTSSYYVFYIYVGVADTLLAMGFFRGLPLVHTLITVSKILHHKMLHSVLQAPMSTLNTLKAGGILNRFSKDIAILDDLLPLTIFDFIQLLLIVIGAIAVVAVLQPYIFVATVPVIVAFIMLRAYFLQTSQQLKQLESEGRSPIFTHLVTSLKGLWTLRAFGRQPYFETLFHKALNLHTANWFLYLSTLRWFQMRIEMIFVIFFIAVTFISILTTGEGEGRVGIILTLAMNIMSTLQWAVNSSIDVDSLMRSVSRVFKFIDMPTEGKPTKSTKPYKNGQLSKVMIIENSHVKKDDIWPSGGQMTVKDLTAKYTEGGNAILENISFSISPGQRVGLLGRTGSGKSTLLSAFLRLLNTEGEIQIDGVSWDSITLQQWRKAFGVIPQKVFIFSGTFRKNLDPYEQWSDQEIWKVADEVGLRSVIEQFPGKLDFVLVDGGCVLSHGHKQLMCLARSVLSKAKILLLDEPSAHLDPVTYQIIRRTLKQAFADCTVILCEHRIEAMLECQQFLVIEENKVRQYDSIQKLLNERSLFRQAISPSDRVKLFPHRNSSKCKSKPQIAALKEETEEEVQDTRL
# T2 sequence (P13569 whole entry): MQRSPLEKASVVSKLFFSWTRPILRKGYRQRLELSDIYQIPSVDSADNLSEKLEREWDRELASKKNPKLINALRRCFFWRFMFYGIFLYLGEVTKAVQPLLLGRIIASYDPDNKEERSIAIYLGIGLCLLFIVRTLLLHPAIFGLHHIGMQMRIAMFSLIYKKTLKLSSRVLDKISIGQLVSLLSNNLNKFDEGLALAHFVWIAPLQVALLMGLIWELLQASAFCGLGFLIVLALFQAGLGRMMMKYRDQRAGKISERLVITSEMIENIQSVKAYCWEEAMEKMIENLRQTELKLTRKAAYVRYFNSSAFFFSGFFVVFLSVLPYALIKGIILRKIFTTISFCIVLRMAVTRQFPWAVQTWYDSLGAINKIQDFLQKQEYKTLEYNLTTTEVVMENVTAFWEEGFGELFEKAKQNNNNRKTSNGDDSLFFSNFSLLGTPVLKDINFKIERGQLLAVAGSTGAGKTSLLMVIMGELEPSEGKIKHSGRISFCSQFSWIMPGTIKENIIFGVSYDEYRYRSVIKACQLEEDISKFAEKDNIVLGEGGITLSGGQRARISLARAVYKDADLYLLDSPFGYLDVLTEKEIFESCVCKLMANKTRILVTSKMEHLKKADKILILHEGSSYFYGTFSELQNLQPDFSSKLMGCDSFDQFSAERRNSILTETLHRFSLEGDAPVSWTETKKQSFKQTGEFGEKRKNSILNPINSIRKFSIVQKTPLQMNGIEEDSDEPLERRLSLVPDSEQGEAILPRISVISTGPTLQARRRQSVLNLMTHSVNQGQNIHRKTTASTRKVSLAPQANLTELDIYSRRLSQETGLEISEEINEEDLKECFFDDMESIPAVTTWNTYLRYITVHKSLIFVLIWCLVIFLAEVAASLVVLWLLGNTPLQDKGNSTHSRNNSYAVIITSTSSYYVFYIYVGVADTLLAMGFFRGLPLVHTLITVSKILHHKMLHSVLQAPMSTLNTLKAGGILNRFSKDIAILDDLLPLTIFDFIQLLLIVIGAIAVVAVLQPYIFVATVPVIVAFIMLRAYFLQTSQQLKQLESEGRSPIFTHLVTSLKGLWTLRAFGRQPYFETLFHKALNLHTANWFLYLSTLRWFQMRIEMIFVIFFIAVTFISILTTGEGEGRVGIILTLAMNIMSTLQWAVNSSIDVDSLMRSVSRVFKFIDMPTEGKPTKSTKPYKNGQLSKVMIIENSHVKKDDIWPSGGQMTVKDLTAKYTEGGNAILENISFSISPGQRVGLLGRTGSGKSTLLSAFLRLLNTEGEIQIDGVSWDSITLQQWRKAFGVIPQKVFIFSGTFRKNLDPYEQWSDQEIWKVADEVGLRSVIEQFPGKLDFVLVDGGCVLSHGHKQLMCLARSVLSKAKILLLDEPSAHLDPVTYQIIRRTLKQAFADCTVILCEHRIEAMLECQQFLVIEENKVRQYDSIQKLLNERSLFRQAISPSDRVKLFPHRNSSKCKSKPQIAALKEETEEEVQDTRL
Compound,EC50 (delF508-CFTR [1]; [7]),Activation of wild-type CFTR or other anionic transporter (wild-type CFTR [2]),CFTR activity after treatment (wild-type CFTR addressing) (wild-type CFTR [3]),Cell viability (MTT) (CHO-WT cells),EC50 (delF508-CFTR [1]),Function of readdressed delF508-CFTR (iodide efflux and patch-clamp on whole cells) (delF508-CFTR [1]),"Treatment time for maximal correction of delF508-CFTR chloride ion channel function (delF508-CFTR [1]; CF15 cells, 100 μM)","Restoration of delF508 addressing and ion transport function (delF508-CFTR [1]; CF15 cells, 2 hrs at 37° C., two forms (R and S))",Maturation of delF508-CFTR (band C in Western-Blot) (delF508-CFTR [4]),Maturation of delF508-CFTR (band C in Western-Blot) (delF508-CFTR [4]; listed as CFTR-T1),Localisation of delF508-CFTR protein (delF508-CFTR [5]),Competition with inhibitors of the chaperone and degradation machinery (delF508-CFTR [6]),"Effect of Brefeldine A (BFA) on the compound's action (delF508-CFTR [6]; BFA, inhibitor of ERGIC vesicular traffic)","Effect of MG132 on the compound's action (delF508-CFTR [6]; MG132, proteasome inhibitor)"
"CC[C@H](CO)Nc1nc(NCc2ccccc2)c2ncn(C(C)C)c2n1 [R-Roscovitine, 2-(R)-(1-ethyl-2-hydroxyethylamino)-6-benzylamino-9-isopropylpurine]",34 ± 1.9 µM,,,,,,,,,,,,,
"CC[C@@H](CO)Nc1nc(NCc2ccccc2)c2ncn(C(C)C)c2n1 [S-Roscovitine, 2-(S)(1-ethyl-2-hydroxyethylamino)-6-benzylamino-9-isopropylpurine]",32 ± 1.4 µM,,,,,,,,,,,,,
CC[C@H](CO)Nc1nc(NCc2ccccc2)c2ncn(C(C)C)c2n1 [roscovitine],,not found to be an activator,not significantly different from the controls,viable at all concentrations,56 µM,functional,2 h,restores addressing of the delF508 protein,appearance of the mature CFTR band,maturation of delF508-CFTR (band C appears in the Western-Blot),localised in the plasma membrane compartment; also recorded: correct delF508-CFTR relocation to the plasma membrane; also recorded: allowed relocation of the delF508-CFTR protein to the membrane,competed with inhibitors of calnexin/delF508-CFTR binding as well as inhibitors of the degradation pathway,inhibition,no modulation is observed
